Measured values as given in US6831091B2, “Salt forms of 3-(4-bromo-2,6-difluoro-benzyloxy)-5-[3-(4-pyrrolidin-1-yl-butyl)-ureido]-isothiazole-4-carboxylic acid amide and method of production” (priority 2000, dated 2004).

How the values were obtained:
[1] = Hygroscopicity (water uptake at stated relative humidity); assay type: physicochemical; details: for hygroscopicity relative to the mesylate salt: compared with mesylate salt; for water absorbed: 90% relative humidity
[2] = Crystallinity (freedom from amorphous material); assay type: physicochemical; details: i.e., substantially free of amorphous material
[3] = Stability in air / deliquescence; assay type: physicochemical; details: can be used without deliquescence
[4] = assay type: physicochemical; details: for kinetic solubility relative to free base or hydrochloride: compared with free base or hydrochloride form
[5] = Tendency of concentrated aqueous solution to form viscous mixtures upon standing; assay type: physicochemical
[6] = Conversion of crystal form in refluxing ethanol; assay type: physicochemical
[7] = Sedative effect on dosing; assay type: in vivo; details: low to moderate dosing

Row | Compound | hygroscopic stability [1] | crystallinity [2] | Hygroscopicity ([1]; 87% relative RH) | hygroscopicity relative to the mesylate salt [1] | stability in air [3] | other results
1 | 3-(4-bromo-2,6-difluoro-benzyloxy)-5-[3-(4-pyrrolidin-1-yl-butyl)-ureido]-isothiazole-4-carboxylic acid amide hemi-succinate | substantially hygroscopically stable | high crystallinity | – | – | – | –
2 | Cc1ccc(S(=O)(=O)O)cc1.NC(=O)c1c(OCc2c(F)cc(Br)cc2F)nsc1NC(=O)NCCCCN1CCCC1 [Example 6, 3-(4-bromo-2,6-difluoro-benzyloxy)-5-[3-(4-pyrrolidin-1-yl-butyl)-ureido]-isothiazole-4-carboxylic acid amide p-tosylate] | – | – | −0.9% | less hygroscopic than the mesylate salt | more stable in air | kinetic solubility relative to free base or hydrochloride [4]: greater kinetic solubility than the free base or hydrochloride form
3 | NC(=O)c1c(OCc2c(F)cc(Br)cc2F)nsc1NC(=O)NCCCCN1CCCC1.O=C(O)C(O)C(O)C(=O)O [Example 7, 3-(4-bromo-2,6-difluoro-benzyloxy)-5-[3-(4-pyrrolidin-1-yl-butyl)-ureido]-isothiazole-4-carboxylic acid amide L-tartrate] | – | – | – | less hygroscopic than the mesylate salt | more stable in air | Hygroscopicity ([1]; 100% RH): 0.3%; kinetic solubility relative to free base or hydrochloride [4]: greater kinetic solubility than the free base or hydrochloride form
4 | 3-(4-bromo-2,6-difluoro-benzyloxy)-5-[3-(4-pyrrolidin-1-yl-butyl)-ureido]-isothiazole-4-carboxylic acid amide hemi-citrate [Example 4] | – | – | 0.43% | less hygroscopic than the mesylate salt | more stable in air | –
5 | Cl.NC(=O)c1c(OCc2c(F)cc(Br)cc2F)nsc1NC(=O)NCCCCN1CCCC1 [Example 2, 3-(4-bromo-2,6-difluoro-benzyloxy)-5-[3-(4-pyrrolidin-1-yl-butyl)-ureido]-isothiazole-4-carboxylic acid amide hydrochloride] | substantially hygroscopically stable | high crystallinity | – | – | – | Hygroscopicity ([1]; 90% relative humidity at ambient temperature): 1 % (by weight); tendency for concentrated aqueous solution to form viscous mixtures upon standing [5]: low tendency
6 | 3-(4-bromo-2,6-difluoro-benzyloxy)-5-[3-(4-pyrrolidin-1-yl-butyl)-ureido]-isothiazole-4-carboxylic acid amide hemi-succinate [Example 9] | – | – | – | – | – | Hygroscopicity ([1]; 30° C. and 90% RH, listed as Hemi-succinate crystal form B): 1.5 % w/w; Hygroscopicity ([1]; 90% relative RH): 1.5%; water absorbed ([1]; listed as Form B hemi-succinate): 1.5%; time for conversion of hemi-succinate form B into form A [6]: less than 24 hours
7 | Br.NC(=O)c1c(OCc2c(F)cc(Br)cc2F)nsc1NC(=O)NCCCCN1CCCC1 [Example 3, 3-(4-bromo-2,6-difluoro-benzyloxy)-5-[3-(4-pyrrolidin-1-yl-butyl)-ureido]-isothiazole-4-carboxylic acid amide hydrobromide] | substantially hygroscopically stable | high crystallinity | 0.1% | – | – | sedative effect [7]: mild sedative effect; tendency for concentrated aqueous solution to form viscous mixtures upon standing [5]: low tendency
8 | CS(=O)(=O)O.NC(=O)c1c(OCc2c(F)cc(Br)cc2F)nsc1NC(=O)NCCCCN1CCCC1 [Example 10, 3-(4-bromo-2,6-difluoro-benzyloxy)-5-[3-(4-pyrrolidin-1-yl-butyl)-ureido]-isothiazole-4-carboxylic acid amide mesylate] | – | high crystallinity | – | – | – | kinetic aqueous solubility [4]: rapid kinetic aqueous solubility
9 | CC(=O)O.NC(=O)c1c(OCc2c(F)cc(Br)cc2F)nsc1NC(=O)NCCCCN1CCCC1 [Example 5, 3-(4-bromo-2,6-difluoro-benzyloxy)-5-[3-(4-pyrrolidin-1-yl-butyl)-ureido]-isothiazole-4-carboxylic acid amide acetate] | – | high crystallinity | – | – | – | –
10 | 3-(4-bromo-2,6-difluoro-benzyloxy)-5-[3-(4-pyrrolidin-1-yl-butyl)-ureido]-isothiazole-4-carboxylic acid amide hemi-succinate [Example 8] | – | – | – | – | – | Hygroscopicity ([1]; 30° C. and 90% RH, listed as Hemi-succinate crystal form A): 0.6 % w/w; Hygroscopicity ([1]; 90% relative RH): 0.6%; water absorbed ([1]; listed as Form A hemi-succinate): 0.6%
